Measured values published in patent US20110229437A1, “Method of Treating Asthma with Antiviral Agents” (priority 2009, published 2011).

Key:
[1] = Case report: flu like symptoms of the same adult under Tamiflu; format: in vivo, human; settings: Tamiflu 75 mg by mouth twice a day
[2] = Case report: asthma symptoms of an adult with history of asthma after a 5 day course of Tamiflu; settings: one patient
Text: They had been using Advair® two inhalations a day or Symbicort® four puffs a day. Advair® is a combination formulation containing fluticasone propionate (a corticosteroid) and salmeterol xinafoate (a long-acting β2-adrenergic receptor agonist). Symbicort® contains two active ingredients which are delivered via a single inhaler: budesonide, a corticosteroid, and formoterol, a long-acting β2-agonist.
Singulair® contains montelukast, a leukotriene receptor antagonist (LTRA) used for the maintenance treatment of asthma and to relieve symptoms of seasonal allergies.

| Compound | time until fatigue resolved ([1]; one patient) | time until feeling better and myalgias relieved ([1]; one patient) | fever after start of treatment ([1]; dropped from 39 C.° within 1.5 days) | asthma symptoms ([2]; during/after Tamiflu 75 mg by mouth twice a day for 5 days) | level of asthmatic relief compared with prednisone 60 mg per day, reported by the patient ([2]; five weeks after using Tamiflu) | side effects in the patient ([2]; used for years) |
| --- | --- | --- | --- | --- | --- | --- |
| CCOC(=O)C1=C[C@@H](OC(CC)CC)[C@H](NC(C)=O)[C@@H](N)C1 [Tamiflu, Oseltamivir phosphate] | ≤ 1.5 days | ≤ 12 h | 38 C.° | diminished | similar | – |
| CC(C)(O)c1ccccc1CC[C@@H](SCC1(CC(=O)O)CC1)c1cccc(/C=C/c2ccc3ccc(Cl)cc3n2)c1 [Singulair, montelukast] | – | – | – | – | – | no side effects |
